From US10364267B2, “Deuterated bile acid derivatives as FXR/TGR5 agonists and methods of use thereof” (ENANTA PHARMACEUTICALS, INC., priority 2016, dated 2019)
pEC50: −log10 of the molar value.

Target: T1, human FXR (NR1H4) (Homo sapiens, UniProt Q96RI1)
T1 construct: host or cells: CHO (Chinese hamster ovary) reporter cells
T1 sequence (Q96RI1 1-486): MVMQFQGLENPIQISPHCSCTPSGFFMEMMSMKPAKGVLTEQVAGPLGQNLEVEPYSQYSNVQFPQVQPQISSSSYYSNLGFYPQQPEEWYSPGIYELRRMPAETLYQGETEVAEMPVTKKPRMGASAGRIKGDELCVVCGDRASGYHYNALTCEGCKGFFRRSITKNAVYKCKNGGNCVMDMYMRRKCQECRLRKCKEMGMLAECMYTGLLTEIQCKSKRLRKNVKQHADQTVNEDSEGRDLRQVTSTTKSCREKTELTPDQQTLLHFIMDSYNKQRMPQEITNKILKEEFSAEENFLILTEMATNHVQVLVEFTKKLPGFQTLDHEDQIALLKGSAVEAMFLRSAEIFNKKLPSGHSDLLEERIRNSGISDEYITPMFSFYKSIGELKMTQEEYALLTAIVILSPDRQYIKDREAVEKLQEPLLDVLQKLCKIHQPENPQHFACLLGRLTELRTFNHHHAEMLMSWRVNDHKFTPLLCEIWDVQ
Assay: Human FXR (NR1H4) Assay (luciferase reporter, Indigo Bioscience kit)
Format: cell-based
Details: for Efficacy (%): efficacy normalized to CDCA set as 100%, CHO reporter cells expressing human NR1H4
From the text: Human FXR (NR1H4) Assay Determination of a ligand mediated Gal4 promoter driven transactivation to quantify ligand binding mediated activation of FXR. FXR Reporter Assay kit purchased from Indigo Bioscience (Catalogue number: IB00601) to determine the potency and efficacy of compound developed by Enanta that can induce FXR activation. The principle application of this reporter assay system is to quantify functional activity of human FXR. The assay utilizes non-human mammalian cells, CHO (Chinese hamster ovary) cells engineered to express human NR1H4 protein (referred to as FXR). Reporter cells also incorporate the cDNA encoding beetle luciferase which catalyzes the substrates and yields photon emission. Luminescence intensity of the reaction is quantified using a plate-reading luminometer, Envision. Reporter Cells include the luciferase reporter gene functionally linked to an FXR responsive promoter. Thus, quantifying changes in luciferase expression in the treated reporter cells provides a sensitive surrogate measure of the changes in FXR activity. […] The assay is according to the manufacturer's instructions. In brief, the assay was performed in white, 96 well plates using final volume of 100 ul containing cells with different doses of compounds. Retrieve Reporter Cells from −80° C. storage. Perform a rapid thaw of the frozen cells by transferring a 10 ml volume of 37° C. cell recovery medium into the tube of frozen cells. Recap the tube of Reporter Cells and immediately place it in a 37° C. water bath for 5-10 minutes. Retrieve the tube of Reporter Cell Suspension from the water bath. Sanitize the outside surface of the tube with a 70% alcohol swab, and then transfer it into the cell culture hood. Dispense 90 μl of cell suspension into each well of the 96-well Assay Plate. Transfer the plate into 37° C. incubator, allowing the cells adherent to the bottom of the well. Dilute compounds in Dilution Plate (DP), and administrate to cells at Assay Plate (AP). DMSO content of the samples was kept at 0.2%. Cells were incubated for additional 22 hours before luciferase activities were measured. Thirty minutes before intending to quantify FXR activity, remove Detection Substrate and Detection Buffer from the refrigerator and place them in a low-light area so that they may equilibrate to room temperature. Remove the plate's lid and discard all media contents by ejecting it into an appropriate waste container. Gently tap the inverted plate onto a clean absorbent paper towel to remove residual droplets. Cells will remain tightly adhered to well bottoms. Add 100 μl of luciferase detection reagent to each well of the assay plate. […] Set the instrument (Envision) to perform a single 5 second “plate shake” prior to reading the first assay well. Read time may be 0.5 second (500 mSec) per well.

Row | SMILES | pEC50 | Efficacy (%)
1 | [2H]C([C@@H]1[C@@H]2C[C@H](O)CC[C@]2(C)C2CC[C@@]3(C)C(CC[C@@H]3[C@H](C)CCNC(=O)NS(=O)(=O)c3ccc(C(C)(C)C)cc3)C2[C@]1([2H])O)C([2H])([2H])[2H] (stereo partly shown) [Example 4] | > 7.00 | 197
2 | [2H]C([C@@H]1[C@@H]2C[C@H](O)CC[C@]2(C)C2CC[C@@]3(C)C(CC[C@@H]3[C@H](C)CCNC(=O)NS(=O)(=O)N(C)C)C2[C@]1([2H])O)C([2H])([2H])[2H] (stereo partly shown) [Example 5] | 6.00 to 7.00 | 352.
